Values quoted from earlier work, collected in patent US20250090522A1 (priority 2021, published 2025).
Entries after “also recorded” stand apart in the source; their conditions may differ. Where two headings read alike, the source gives them in different places.

Assays:
[1] = withdrawn from the US market in 1999
[2] = not given; remark: listed apart in the source
[3] = not given; remark: listed apart in the source
[4] = test system: activator protein-1 (AP-1); conditions: H1 receptor-dependent and independent mechanisms
[5] = test system: chronic idiopathic urticaria (CIU); conditions: from 5 to 20 mg/day
H1 receptor = H1 receptor (Homo sapiens, UniProt P35367); conditions: acidic pH
Chain of H1 receptor (P35367 whole entry): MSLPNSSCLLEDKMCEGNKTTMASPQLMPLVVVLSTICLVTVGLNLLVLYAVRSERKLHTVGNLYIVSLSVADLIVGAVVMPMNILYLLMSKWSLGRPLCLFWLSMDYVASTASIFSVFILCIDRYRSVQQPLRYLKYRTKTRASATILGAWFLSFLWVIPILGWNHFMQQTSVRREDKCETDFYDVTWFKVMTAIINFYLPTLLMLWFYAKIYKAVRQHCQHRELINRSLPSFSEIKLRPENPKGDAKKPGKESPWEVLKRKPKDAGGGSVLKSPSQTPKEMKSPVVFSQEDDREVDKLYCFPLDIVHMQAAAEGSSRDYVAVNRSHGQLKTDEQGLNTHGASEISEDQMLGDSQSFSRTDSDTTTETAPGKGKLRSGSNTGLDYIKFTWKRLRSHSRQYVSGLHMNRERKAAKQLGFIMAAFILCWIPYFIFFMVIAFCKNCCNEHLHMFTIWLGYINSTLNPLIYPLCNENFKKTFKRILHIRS

[6] = 421 patients with allergy/asthma treated for six months; p<0.001 for all scales
RANTES = conditions: dose-dependent manner
[7] = test system: histamine induced wheal and flare
[8] = airway epithelial cells from nose and lung

**Q.** With `COc1ccc(CCN2CCC(Nc3nc4ccccc4n3Cc3ccc(F)cc3)CC2)cc1` [astemizole] as the compound, how does the “activity against MERSCoV” value (MERSCoV) read?
**A.** Its value is “astemizole was active against both”.

**Q.** And the cardiac toxicity [1]?
**A.** Its cardiac toxicity is “prolongation of the QTc interval”.

**Q.** What about the “activity against SARS-CoV” value (SARS-CoV) of the same compound?
**A.** The value was “astemizole was active against both”.

**Q.** With `CC(C)(O)c1ccccc1CC[C@@H](SCC1(CC(=O)O)CC1)c1cccc(/C=C/c2ccc3ccc(Cl)cc3n2)c1` [Montelukast] as the compound, how does the “doses administered without clinically relevant side effects” value (adult patients, 22 weeks) read?
**A.** Its value is “up to 200 mg/day”.

**Q.** And the “doses administered without clinically relevant side effects” value (short-term studies, approximately one week)?
**A.** The value was “up to 900 mg/day”.

**Q.** What about the “linear pharmacokinetics to” value ([2]; in vivo) of the same compound?
**A.** Its value is “pharmacokinetics to 50 mg/day”.

**Q.** And the drug interactions ([2]; with warfarin, theophylline, digoxin, terfenadine, oral contraceptives, or prednisone)?
**A.** The drug interactions was “no drug interactions”.

**Q.** What about the “risk of mental health side effects” value ([3]; compared to inhaled corticosteroids (ICS)) of the same compound?
**A.** Its value is “no increased risk”.

**Q.** And the “risk of outpatient depression” value ([3]; patients with a psychiatric history, compared to ICS patients)?
**A.** The value was “decreased risk”.

**Q.** For `O=C(O)COCCN1CCN([C@H](c2ccccc2)c2ccc(Cl)cc2)CC1` [Levocetirizine], which “activator protein-1 (AP-1) activity” value [4] is on record?
**A.** Its value is “inhibit”.

**Q.** What about the “efficacy in CIU on titration” value [5] of the same compound?
**A.** Its value is “Titratable with increasing efficacy”.

**Q.** What about the “doses that can be safely administered” value (studies in humans) of the same compound?
**A.** The value was “up to 30 mg/day”.

**Q.** And the HRV viral replication (human rhinovirus (HRV); [8])?
**A.** The HRV viral replication was “inhibit”.

**Q.** What about the “HRV-induced ICAM-1” value (human rhinovirus (HRV); [8]) of the same compound?
**A.** The value was “inhibit”.

**Q.** What about the HRV-induced cytokine expression (human rhinovirus (HRV); [8]) of the same compound?
**A.** The HRV-induced cytokine expression was “inhibit”.

**Q.** And the “antiviral activity against human rhinovirus-16 (HRV-16)” value (human rhinovirus (HRV); cell and clinical science)?
**A.** The value was “Cell and clinical science-antiviral”.

**Q.** And the “enhanced receptor affinity over first generation mepyramine” value (H1 receptor)?
**A.** The value was 5 ×.

**Q.** What about the “time to steady state level” value ([2]; in vivo) of the same compound?
**A.** The value was 40 h.

**Q.** What about the “quality of life (SF-36)” value [6] of the same compound?
**A.** The value was “improved quality of life across all treatment domains; also recorded: independently improve quality of life”.

**Q.** What about the “tumor necrosis factor-a induced production of the chemokine RANTES” value (RANTES) of the same compound?
**A.** The value was “decrease”.

**Q.** And the “potency among the five modern generation antihistamines” value ([7]; histamine wheal and flare data)?
**A.** Its value is “most potent”.

**Q.** And the effectiveness versus fexofenadine ([7]; levocetirizine 5 mg per day versus fexofenadine 180 mg per day)?
**A.** The effectiveness versus fexofenadine was “more effective than fexofenadine”.
